Measurements from patent publication US9149475B2, “Protein kinase C inhibitors and uses thereof” (Rigel Pharmaceuticals, Inc., priority 2009, dated 2015).

System: Human primary T cells
Experiment: IL-2 ELISA, human primary T cell, anti-CD3+CD28+ (whole cell assay)
Assay type: cell-based
Settings: human primary T cells stimulated with anti-CD3 + anti-CD28, 24 hours
Procedure, shortened: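 IL-2 secreted over 24 h at 37° C was quantified by ELISA after plate-bound αCD3 (1 μg/ml) and αCD28 (5 μg/ml) stimulation, or PMA (0.5 ng/ml) with ionomycin (0.1 μM) as counter-screen. Cells were IL-2-starved primary human T cells, expanded from volunteer PBMC and exposed to compound for 1 hr beforehand.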

Structure (SMILES)	IC50 (Homo sapiens, T-cell, 24 h) [nM]	IC50 [nM]
CN1C(C)(C)CC(Nc2nc(Nc3cc(OC(F)F)cc(C(F)(F)F)c3)ncc2F)CC1(C)C [Compound I-107, N2-(3-(difluoromethoxy)-5-(trifluoromethyl)phenyl)-5-fluoro-N4-(1,2,2,6,6-pentamethylpiperidin-4-yl)pyrimidine-2,4-diamine]	250 to 500	
CCOc1ccc(Nc2ncc(F)c(NC3CC(C)(C)NC(C)(C)C3)n2)cc1OC(F)F [Compound I-108, N2-(3-(difluoromethoxy)-4-ethoxyphenyl)-5-fluoro-N4-(2,2,6,6-tetramethylpiperidin-4-yl)pyrimidine-2,4-diamine]	< 250	
CCOc1ccc(Nc2ncc(F)c(NC3CC(C)(C)N(C)C(C)(C)C3)n2)cc1OC(F)F [Compound I-109, N2-(3-(difluoromethoxy)-4-ethoxyphenyl)-5-fluoro-N4-(1,2,2,6,6-pentamethylpiperidin-4-yl)pyrimidine-2,4-diamine]	< 250	
COc1cc(NC(C)=O)cc(Nc2ncc(F)c(NC3CC(C)(C)N(C)C(C)(C)C3)n2)c1 [Compound I-110, N2-(3-Acetylamino-5-methoxyphenyl)-5-fluoro-N4-(1,2,2,6,6-pentamethylpiperidin-4-yl)-2,4-pyrimidinediamine]	500 to 1000	
Cc1nnnn1-c1cc(Nc2ncc(F)c(NC3CC(C)(C)N(C)C(C)(C)C3)n2)cnc1O [Compound I-112, 5-(4-(1,2,2,6,6-pentamethylpiperidin-4-ylamino)-5-fluoropyrimidin-2-ylamino)-3-(5-methyl-1H-tetrazol-1-yl)pyridin-2-ol]	> 1000	
Cc1nnnn1-c1cc(Nc2ncc(F)c(NC3CC(C)(C)NC(C)(C)C3)n2)cnc1OC(C)C [Compound I-114, 5-fluoro-N2-(6-isopropoxy-5-(5-methyl-1H-tetrazol-1-yl)pyridin-3-yl)-N4-(2,2,6,6-tetramethylpiperidin-4-yl)pyrimidine-2,4-diamine]	< 250	
Cc1ccc(C)n1-c1cc(Nc2ncc(F)c(NC3CC(C)(C)NC(C)(C)C3)n2)cnc1OC(C)C [Compound I-116, 5-fluoro-N2-(6-isopropoxy-5-(2,5-dimethyl-1H-pyrrol-1-yl)pyridin-3-yl)-N4-(2,2,6,6-tetramethylpiperidin-4-yl)pyrimidine-2,4-diamine]	500 to 1000	
CCOc1ncc(Nc2ncc(F)c(NC3CC(C)(C)N(C)C(C)(C)C3)n2)cc1OC(F)F [Compound I-117, N2-(5-(difluoromethoxy)-6-ethoxypyridin-3-yl)-5-fluoro-N4-(1,2,2,6,6-pentamethylpiperidin-4-yl)pyrimidine-2,4-diamine]	250 to 500	
CCOc1ncc(Nc2ncc(F)c(NC3CC(C)(C)NC(C)(C)C3)n2)cc1OC(F)F [Compound I-118, N2-(5-(difluoromethoxy)-6-ethoxypyridin-3-yl)-5-fluoro-N4-(2,2,6,6-tetramethylpiperidin-4-yl)pyrimidine-2,4-diamine]	250 to 500	
CN1C(C)(C)CC(Nc2nc(Nc3ccc(OCCN4CCOCC4)c(C(F)(F)F)c3)ncc2F)CC1(C)C [Compound I-119, N2-(4-(2-morpholinoethoxy)-3-(trifluoromethyl)phenyl)-5-fluoro-N4-(1,2,2,6,6-pentamethylpiperidin-4-yl)pyrimidine-2,4-diamine]	250 to 500	
CC1(C)CC(Nc2nc(Nc3ccc(OCCN4CCOCC4)c(OC(F)F)c3)ncc2F)CC(C)(C)N1 [Compound I-120, N2-(4-(2-morpholinoethoxy)-3-(difluoromethoxy)phenyl)-5-fluoro-N4-(2,2,6,6-tetramethylpiperidin-4-yl)pyrimidine-2,4-diamine]	> 1000	
CN1C(C)(C)CC(Nc2nc(Nc3ccc(OCCN4CCOCC4)c(OC(F)F)c3)ncc2F)CC1(C)C [Compound I-121, N2-(4-(2-morpholinoethoxy)-3-(difluoromethoxy)phenyl)-5-fluoro-N4-(1,2,2,6,6-pentamethylpiperidin-4-yl)pyrimidine-2,4-diamine]	500 to 1000	
CC1(C)CC(Nc2nc(Nc3ccc(OC(C)(C)CN4CCOCC4)c(OC(F)F)c3)ncc2F)CC(C)(C)N1 [Compound I-122, N2-(4-(2-methyl-1-morpholinopropan-2-yloxy)-3-(difluoromethoxy)phenyl)-5-fluoro-N4-(2,2,6,6-tetramethylpiperidin-4-yl)pyrimidine-2,4-diamine]	> 1000	
CN1C(C)(C)CC(Nc2nc(Nc3ccc(OC(C)(C)CN4CCOCC4)c(OC(F)F)c3)ncc2F)CC1(C)C [Compound I-123, N2-(4-(2-methyl-1-morpholinopropan-2-yloxy)-3-(difluoromethoxy)phenyl)-5-fluoro-N4-(1,2,2,6,6-pentamethylpiperidin-4-yl)pyrimidine-2,4-diamine]	< 250	
CC1(C)CC(Nc2nc(Nc3ccc(OC(C)(C)CN4CCCC4)c(OC(F)F)c3)ncc2F)CC(C)(C)N1 [Compound I-124, N2-(4-(2-methyl-1-(pyrrolidin-1-yl)propan-2-yloxy)-3-(difluoromethoxy)phenyl)-5-fluoro-N4-(2,2,6,6-tetramethylpiperidin-4-yl)pyrimidine-2,4-diamine]	500 to 1000	
CC1(C)CC(Nc2nc(Nc3ccc(F)c(-n4cnnn4)c3)ncc2C(N)=O)CC(C)(C)N1 [Compound I-125, 5-aminocarbonyl-N2-[4-fluoro-3-(1H-tetrazol-1-yl)]phenyl-N4-(2,2,6,6-tetramethylpiperidin-4-yl)-2,4-pyrimidinediamine]		250 to 500

Other lines, results leading:

IC50 (Homo sapiens, T-cell, 24 h) [nM]	IC50 [nM]	Structure (SMILES)
< 250		Cc1nnnn1-c1cc(Nc2ncc(F)c(NC3CC(C)(C)N(C)C(C)(C)C3)n2)cnc1OC(C)C [Compound I-113, 5-fluoro-N2-(6-isopropoxy-5-(5-methyl-1H-tetrazol-1-yl)pyridin-3-yl)-N4-(1,2,2,6,6-pentamethylpiperidin-4-yl)pyrimidine-2,4-diamine]
500 to 1000		Cc1ccc(C)n1-c1cc(Nc2ncc(F)c(NC3CC(C)(C)N(C)C(C)(C)C3)n2)cnc1OC(C)C [Compound I-115, 5-fluoro-N2-(6-isopropoxy-5-(2,5-dimethyl-1H-pyrrol-1-yl)pyridin-3-yl)-N4-(1,2,2,6,6-pentamethylpiperidin-4-yl)pyrimidine-2,4-diamine]
< 250		CC(C)Oc1ncc(Nc2ncc(F)c(NC3CC(C)(C)N(C)C(C)(C)C3)n2)cc1-c1nnnn1C [Compound I-126, 5-fluoro-N2-(6-isopropoxy-5-(1-methyl-1H-tetrazol-5-yl)pyridin-3-yl)-N4-(1,2,2,6,6-pentamethylpiperidin-4-yl)pyrimidine-2,4-diamine]
250 to 500		CC(C)Oc1ncc(Nc2ncc(F)c(NC3CC(C)(C)NC(C)(C)C3)n2)cc1-c1nnnn1C [Compound I-127, 5-fluoro-N2-(6-isopropoxy-5-(1-methyl-1H-tetrazol-5-yl)pyridin-3-yl)-N4-(2,2,6,6-tetramethylpiperidin-4-yl)pyrimidine-2,4-diamine]
> 1000		CC(C)Oc1ncc(Nc2ncc(C(N)=O)c(NC3CC(C)(C)N(C)C(C)(C)C3)n2)cc1-c1nnnn1C [Compound I-128, 2-(6-isopropoxy-5-(1-methyl-1H-tetrazol-5-yl)pyridin-3-ylamino)-4-(1,2,2,6,6-pentamethylpiperidin-4-ylamino)pyrimidine-5-carboxamide]
500 to 1000		CC(C)Oc1ncc(Nc2ncc(C#N)c(NC3CC(C)(C)N(C)C(C)(C)C3)n2)cc1-c1nnnn1C [Compound I-129, 2-(6-isopropoxy-5-(1-methyl-1H-tetrazol-5-yl)pyridin-3-ylamino)-4-(1,2,2,6,6-pentamethylpiperidin-4-ylamino)pyrimidine-5-carbonitrile]
> 1000		CC(C)Oc1ncc(Nc2ncc(C#N)c(NC3CC(C)(C)NC(C)(C)C3)n2)cc1-c1nnnn1C [Compound I-130, 2-(6-isopropoxy-5-(1-methyl-1H-tetrazol-5-yl)pyridin-3-ylamino)-4-(2,2,6,6-tetramethylpiperidin-4-ylamino)pyrimidine-5-carbonitrile]
500 to 1000		CC(C)Oc1ncc(Nc2ncc(F)c(NC3CC(C)(C)N(C)C(C)(C)C3)n2)cc1-c1nnnn1C(C)C [Compound I-131, 5-fluoro-N2-(6-isopropoxy-5-(1-isopropyl-1H-tetrazol-5-yl)pyridin-3-yl)-N4-(1,2,2,6,6-pentamethylpiperidin-4-yl)pyrimidine-2,4-diamine]
500 to 1000		CC(C)Oc1ncc(Nc2ncc(F)c(NC3CC(C)(C)NC(C)(C)C3)n2)cc1-c1nnnn1C(C)C [Compound I-132, 5-fluoro-N2-(6-isopropoxy-5-(1-isopropyl-1H-tetrazol-5-yl)pyridin-3-yl)-N4-(2,2,6,6-tetramethylpiperidin-4-yl)pyrimidine-2,4-diamine]
500 to 1000		CC(C)Oc1ncc(Nc2ncc(C(N)=O)c(NC3CC(C)(C)N(C)C(C)(C)C3)n2)cc1-c1nnnn1C(C)C [Compound I-133, 2-(6-isopropoxy-5-(1-isopropyl-1H-tetrazol-5-yl)pyridin-3-ylamino)-4-(1,2,2,6,6-pentamethylpiperidin-4-ylamino)pyrimidine-5-carboxamide]
> 1000		CC(C)Oc1ncc(Nc2ncc(C(N)=O)c(NC3CC(C)(C)NC(C)(C)C3)n2)cc1-c1nnnn1C(C)C [Compound I-134, 2-(6-isopropoxy-5-(1-isopropyl-1H-tetrazol-5-yl)pyridin-3-ylamino)-4-(2,2,6,6-tetramethylpiperidin-4-ylamino)pyrimidine-5-carboxamide]
500 to 1000		CC(C)Oc1ncc(Nc2ncc(C#N)c(NC3CC(C)(C)N(C)C(C)(C)C3)n2)cc1-c1nnnn1C(C)C [Compound I-135, 2-(6-isopropoxy-5-(1-isopropyl-1H-tetrazol-5-yl)pyridin-3-ylamino)-4-(1,2,2,6,6-pentamethylpiperidin-4-ylamino)pyrimidine-5-carbonitrile]
> 1000		CC(C)Oc1ncc(Nc2ncc(C#N)c(NC3CC(C)(C)NC(C)(C)C3)n2)cc1-c1nnnn1C(C)C [Compound I-136, 2-(6-isopropoxy-5-(1-isopropyl-1H-tetrazol-5-yl)pyridin-3-ylamino)-4-(2,2,6,6-tetramethylpiperidin-4-ylamino)pyrimidine-5-carbonitrile]
